Results as given in ChEMBL document CHEMBL1154047, “Chiral gossypol derivatives: evaluation of their anticancer activity and molecular modeling” (Eur J Med Chem, 2009).
Values joined by “and” are separate entries in the source; they are usually repeats but may differ in a detail not shown here. Equal values may be shown once.

Legend:
HeLa [1] = assay: Anticancer activity against human HeLa cells after 48 hrs by MTT assay; format: functional, cell-based
HeLa [2] = assay: Ratio of compound IC50 to cisplatin IC50 for human HeLa cells; format: functional
[3] = Ratio of compound IC50 to cisplatin IC50 for human U87 cells; format: functional, U-87MG ATCC
[4] = Anticancer activity against human M85 cells after 48 hrs by MTT assay; format: functional, cell-based
[5] = Ratio of compound IC50 to cisplatin IC50 for human M85 cells; format: functional
[6] = Ratio of compound IC50 to (-)-gossypol IC50 for human M85 cells; format: functional
[7] = Ratio of compound IC50 to (-)-gossypol IC50 for human U87 cells; format: functional, U-87MG ATCC
[8] = Anticancer activity against human U87 cells after 48 hrs by MTT assay; format: functional, cell-based, U-87MG ATCC
HeLa [9] = assay: Ratio of compound IC50 to (-)-gossypol IC50 for human HeLa cells; format: functional

Structure (SMILES) | IC50 (HeLa [1]; hela) [µM] | IC50 (HeLa [1]; Homo sapiens, HeLa, 48 h) [µM] | Ratio IC50 (HeLa [2]) | Ratio IC50 [3] | IC50 ([4]; m85) | Ratio IC50 [5] | Ratio IC50 [6] | Ratio IC50 [7] | IC50 ([8]; u-87mg atcc) [µM] | Ratio IC50 (HeLa [9]) | IC50 ([4]; Homo sapiens, M85, 48 h) [µM] | IC50 ([8]; Homo sapiens, U-87 MG, 48 h) [µM]
Cc1cc2c(c(O)c1-c1c(C)cc3c(c1O)/C(=C/N[C@H](CO)[C@H](O)c1ccc([N+](=O)[O-])cc1)C(=O)C(O)=C3C(C)C)/C(=C/N[C@H](CO)[C@H](O)c1ccc([N+](=O)[O-])cc1)C(=O)C(O)=C2C(C)C (stereo in doubt; 1a) | 19.6 | – | 1.56 | 1.79 | 19 µM | 1.28 | 1.03 | 1.01 | 30.6 | 1.1 | – | –
Cc1cc2c(c(O)c1-c1c(C)cc3c(c1O)/C(=C/N[C@H](CO)[C@H](O)c1ccc([N+](=O)[O-])cc1)C(=O)C(O)=C3C(C)C)/C(=C/N[C@H](CO)[C@H](O)c1ccc([N+](=O)[O-])cc1)C(=O)C(O)=C2C(C)C (stereo in doubt; 1b) | 8.7 | – | 0.69 | 0.78 | < 2.5 µM | <0.17 | <0.14 | 0.44 | 13.3 | 0.49 | – | –
Cc1cc2c(c(O)c1-c1c(C)cc3c(c1O)/C(=C/NCCc1ccccc1)C(=O)C(O)=C3C(C)C)/C(=C/NCCc1ccccc1)C(=O)C(O)=C2C(C)C (stereo in doubt; 3a) | – | 51.8 | 4.11 | – | – | – | – | – | – | 2.91 | > 80 | > 80
Cc1cc2c(c(O)c1-c1c(C)cc3c(c1O)/C(=C/NCCc1ccccc1)C(=O)C(O)=C3C(C)C)/C(=C/NCCc1ccccc1)C(=O)C(O)=C2C(C)C (stereo in doubt; 3b) | 39.9 | – | 3.17 | – | – | – | – | – | – | 2.24 | – | –
COC(=O)[C@H](Cc1ccccc1)N/C=C1\C(=O)C(O)=C(C(C)C)c2cc(C)c(-c3c(C)cc4c(c3O)/C(=C/N[C@@H](Cc3ccccc3)C(=O)OC)C(=O)C(O)=C4C(C)C)c(O)c21 (stereo in doubt; 7a) | – | > 80 | – | – | – | – | – | – | – | – | > 80 | > 80
COC(=O)[C@H](Cc1ccccc1)N/C=C1\C(=O)C(O)=C(C(C)C)c2cc(C)c(-c3c(C)cc4c(c3O)/C(=C/N[C@@H](Cc3ccccc3)C(=O)OC)C(=O)C(O)=C4C(C)C)c(O)c21 (stereo in doubt; 7b) | 69 | – | 5.48 | – | 64.4 µM | 4.32 | 3.5 | – | – | 3.88 | – | –
COC(=O)[C@H](Cc1ccc(O)cc1)N/C=C1\C(=O)C(O)=C(C(C)C)c2cc(C)c(-c3c(C)cc4c(c3O)/C(=C/N[C@@H](Cc3ccc(O)cc3)C(=O)OC)C(=O)C(O)=C4C(C)C)c(O)c21 (stereo in doubt; 8a) | – | 21.8 | 1.73 | 1.88 | 52.4 µM | 3.52 | 2.84 | 1.06 | 32.1 | 1.22 | – | –
COC(=O)[C@H](Cc1ccc(O)cc1)N/C=C1\C(=O)C(O)=C(C(C)C)c2cc(C)c(-c3c(C)cc4c(c3O)/C(=C/N[C@@H](Cc3ccc(O)cc3)C(=O)OC)C(=O)C(O)=C4C(C)C)c(O)c21 (stereo in doubt; 8b) | 11.4 | – | 0.9 | 0.85 | 16.3 µM | 1.09 | 0.89 | 0.48 | 14.5 | 0.64 | – | –
COC(=O)[C@H](Cc1c[nH]c2ccccc12)N/C=C1\C(=O)C(O)=C(C(C)C)c2cc(C)c(-c3c(C)cc4c(c3O)/C(=C/N[C@@H](Cc3c[nH]c5ccccc35)C(=O)OC)C(=O)C(O)=C4C(C)C)c(O)c21 (stereo in doubt; 9a) | – | > 80 | – | – | – | – | – | – | – | – | > 80 | > 80
COC(=O)[C@H](Cc1c[nH]c2ccccc12)N/C=C1\C(=O)C(O)=C(C(C)C)c2cc(C)c(-c3c(C)cc4c(c3O)/C(=C/N[C@@H](Cc3c[nH]c5ccccc35)C(=O)OC)C(=O)C(O)=C4C(C)C)c(O)c21 (stereo in doubt; 9b) | – | – | – | – | 52.3 µM | 3.51 | 2.84 | – | – | – | – | –
COc1c(OC)c2c3c(c(-c4c(C)cc5c(C(C)C)c(OC)c(OC)c6c5c4OC6OC)c(C)cc3c1C(C)C)OC2OC (stereo not drawn) [(-)-GOSSYPOL HEXAMETHYL ETHER] | – | > 80 | – | – | – | – | – | – | – | – | > 80 | > 80
Cc1cc2c(C(C)C)c(O)c(O)cc2c(O)c1-c1c(C)cc2c(C(C)C)c(O)c(O)cc2c1O [APOGOSSYPOL] | 14.1 | 25.5 | 2.02 and 1.12 | 2.08 and 1.67 | 61.2 µM | 4.11 | 3.33 | 1.17 and 0.94 | 28.5 | 1.43 and 0.79 | > 80 | 35.5
CC1=C(C2=C(C)C(=O)c3c(c(C=O)c(O)c(O)c3C(C)C)C2=O)C(=O)c2c(C=O)c(O)c(O)c(C(C)C)c2C1=O [GOSSYPOLONE] | – | 23.3 | 1.85 | 1.53 | – | 1.9 | 1.54 | 0.86 | – | 1.31 | 28.3 | 26.1
Cc1cc2c(C(C)C)c(O)c(O)c(C=O)c2c(O)c1-c1c(C)cc2c(C(C)C)c(O)c(O)c(C=O)c2c1O [GOSSYPOL] | 31.3 | 17.8 | 1.41 and 2.48 | 1.77 and 3.49 | 18.4 µM and 39.7 µM | 1.23 and 2.66 | 1 and 2.16 | 1 and 1.97 | 59.6 | 1 and 1.76 | – | 30.2

Now from value to compound, other results behind:

IC50 (HeLa [1]; hela) [µM] | IC50 (HeLa [1]; Homo sapiens, HeLa, 48 h) [µM] | Structure (SMILES) | Ratio IC50 (HeLa [2]) | Ratio IC50 [3] | IC50 ([4]; m85) | Ratio IC50 [5] | Ratio IC50 [6] | Ratio IC50 [7] | IC50 ([8]; u-87mg atcc) [µM] | Ratio IC50 (HeLa [9]) | IC50 ([4]; Homo sapiens, M85, 48 h) [µM] | IC50 ([8]; Homo sapiens, U-87 MG, 48 h) [µM]
– | 26.5 | Cc1cc2c(c(O)c1-c1c(C)cc3c(c1O)/C(=C/N[C@H](CO)Cc1ccccc1)C(=O)C(O)=C3C(C)C)/C(=C/N[C@H](CO)Cc1ccccc1)C(=O)C(O)=C2C(C)C (stereo in doubt; 2a) | 2.1 | 1.73 | – | 1.44 | 1.17 | 0.98 | – | 1.49 | 21.5 | 29.5
14.7 | – | Cc1cc2c(c(O)c1-c1c(C)cc3c(c1O)/C(=C/N[C@H](CO)Cc1ccccc1)C(=O)C(O)=C3C(C)C)/C(=C/N[C@H](CO)Cc1ccccc1)C(=O)C(O)=C2C(C)C (stereo in doubt; 2b) | 1.17 | 1.71 | 15.5 µM | 1.04 | 0.84 | 0.97 | 29.3 | 0.83 | – | –
– | 10.7 | Cc1cc2c(c(O)c1-c1c(C)cc3c(c1O)/C(=C/NCCCO)C(=O)C(O)=C3C(C)C)/C(=C/NCCCO)C(=O)C(O)=C2C(C)C (stereo in doubt; 4a) | 0.85 | 1.7 | 21.1 µM | 1.42 | 1.15 | 0.96 | 29 | 0.6 | – | –
12.5 | – | Cc1cc2c(c(O)c1-c1c(C)cc3c(c1O)/C(=C/NCCCO)C(=O)C(O)=C3C(C)C)/C(=C/NCCCO)C(=O)C(O)=C2C(C)C (stereo in doubt; 4b) | 0.99 | 0.71 | 5.4 µM | 0.36 | 0.29 | 0.4 | 12.1 | 0.7 | – | –
55.9 | – | Cc1cc2c(c(O)c1-c1c(C)cc3c(c1O)/C(=C/NC1CC1)C(=O)C(O)=C3C(C)C)/C(=C/NC1CC1)C(=O)C(O)=C2C(C)C (stereo in doubt; 5a) | 4.44 | – | – | 1.17 | 0.95 | – | > 80 | 3.14 | 17.4 | –
13.5 | – | Cc1cc2c(c(O)c1-c1c(C)cc3c(c1O)/C(=C/NC1CC1)C(=O)C(O)=C3C(C)C)/C(=C/NC1CC1)C(=O)C(O)=C2C(C)C (stereo in doubt; 5b) | 1.07 | 1.89 | 17.5 µM | – | – | 1.07 | 32.4 | 0.76 | – | –
– | 73.7 | Cc1cc2c(c(O)c1-c1c(C)cc3c(c1O)/C(=C/Nc1ccc(Br)cc1)C(=O)C(O)=C3C(C)C)/C(=C/Nc1ccc(Br)cc1)C(=O)C(O)=C2C(C)C (stereo in doubt; 6a) | 5.85 | – | – | – | – | – | – | 4.14 | > 80 | > 80
49.2 | – | Cc1cc2c(c(O)c1-c1c(C)cc3c(c1O)/C(=C/Nc1ccc(Br)cc1)C(=O)C(O)=C3C(C)C)/C(=C/Nc1ccc(Br)cc1)C(=O)C(O)=C2C(C)C (stereo in doubt; 6b) | 3.9 | – | 78.4 µM | 5.26 | 4.26 | – | – | 2.76 | – | –
– | 23.8 | Cc1cc2c(c(O)c1-c1c(C)cc3c(c1O)/C(=C/NC(C)C)C(=O)C(O)=C3C(C)C)/C(=C/NC(C)C)C(=O)C(O)=C2C(C)C (stereo in doubt; 10a) | 1.88 | 1.7 | – | 2.3 | 1.86 | 0.96 | – | 1.34 | 34.2 | 29.1
17.1 | – | Cc1cc2c(c(O)c1-c1c(C)cc3c(c1O)/C(=C/NC(C)C)C(=O)C(O)=C3C(C)C)/C(=C/NC(C)C)C(=O)C(O)=C2C(C)C (stereo in doubt; 10b) | 1.36 | 1.43 | 30.4 µM | 2.04 | 1.66 | 0.81 | 24.4 | 0.96 | – | –
